The values below are quoted from earlier work in US12371983B2, “Large-scale carbon-mineralization through oxalatization” (THE CURATORS OF THE UNIVERSITY OF MISSOURI, priority 2021, dated 2025).

The conditions of the data set: at 20° C. and one atmospheric pressure.

Each structure is given as a SMILES string. ≈ marks a conversion by molar mass, not a printed value.

For the compound `O=C=O` [CO2], the solubility in water was roughly 1800 µg/mL (≈ 40.9 mM).
